pIC50: −log10 of the molar value.
Experiments:
rhesus monkeys = experiment: Spatial delayed response (SDR) task; type: in vivo, rhesus monkey
Excerpt: AZD0328 at low doses improved performance in the spatial delayed response test in monkeys. Rhesus monkeys were trained in a spatial delayed response task. In this task, food-motivated monkeys observed one of several spatially-displaced wells being baited with a food reward. After a brief delay during which a shutter is drawn and the wells are covered, the monkey must indicate the position of the baited well to receive the food reward. The performance of groups of monkeys was titrated into a narrow range by changing the number of wells or the duration of the delay. Monkeys were tested extensively to establish baseline performance before being administered drug or vehicle. Intramuscular administration of 0.00048 or 0.0016 mg/kg AZD0328 evoked a sustained increase in the percentage of correct responses monkeys made when compared with responses of vehicle-treated monkeys. […] Higher doses (≧0.016 mg/kg or higher) and lower doses (≦0.00016 mg/kg) had either no effect on monkeys or transiently impaired their performance of the task.
Rhesus monkey were trained in a spatial delayed response task. Middle doses of AZD0328 (0.0016 and 0.00048 mg/kg im) evoked a sustained improvement in rhesus monkey performance, while a higher dose (0.48 mg/kg) and a lower dose (0.000016 mg/kg) transiently impaired performance of the task (Table 2).

Mouse lymphoma = Mouse lymphoma test; type: cell-based
Excerpt: (§1) The genotoxic potential of AZD0328 has been evaluated in the Ames test and in the Mouse lymphoma test. AZD0328 was not mutagenic in either of these tests.

mice = experiment: Novel Object Recognition (NOR); type: in vivo, mouse; settings: 0.00178 mg/kg sc
Excerpt: We have now discovered that much lower doses of AZD0328 that provide much lower plasma concentrations, can improve performance of cognitive tasks in mice, rats, and monkeys. AZD0328 at low doses increased novel object recognition in mice. In this procedure, mice were habituated to a chamber in which they were then allowed to “sample” two objects before being removed from the chamber. After a delay during which one of the objects was replaced with a novel object, the mice were returned to the chamber for testing. If the delay was brief, mice spent more time exploring the novel object than the familiar object, which is thought to indicate that the mice “recognize” […], a measure of episodic memory.
AZD0328 increased novel object recognition in mice (Table 2). In this procedure, mice were habituated to a chamber in which they were then allowed to “sample” two objects before being removed from the chamber. After a delay during which one of the objects was replaced with a novel object, the mice were returned to the chamber for testing. If the delay was brief, mice spent more time exploring the novel object than the familiar object, which is thought to indicate that the mice “recognize” that the novel object is novel.

[1] = Pentylenetetrazole-induced seizure threshold; settings: in vivo; rat, oral; read-out: NOAEL, proconvulsant activity
Experimental: AZD0328 was assessed for its ability to influence the threshold to clonic convulsions caused by an intravenous infusion of pentylenetetrazole (PTZ) in rats (Table 3).

FFX Sprague Dawley rats = experiment: Hippocampal long-term potentiation in vivo; design: species or system rat; settings: 0.3 mg/kg
Experimental: AZD0328 reversed a deficit in hippocampal long-term potentiation (LTP) in FFX Sprague Dawley rats (Table 2). […] 0.3 mg/kg of AZD0328 was ineffective in this test.

[2] = molecular target: T1, hERG-encoded potassium channel (Homo sapiens, UniProt Q12809); experiment: hERG patch clamp; type: cell-based; settings: HEK cells, read-out: IC50, block of hERG tail current (estimated)
T1 construct: expressed in transfected cells; host or cells: HEK cells
Experimental: A study was performed to evaluate the effects of AZD0328 on the α-subunit of the voltage-dependent potassium channel encoded by the human ether-a-go-go-related gene (hERG), using the patch clamp technique (Table 3).

Ames test = experiment: Ames test
Excerpt: as §1

dog Purkinje fibre = experiment: Dog isolated cardiac Purkinje fibres, action potential; settings: 0.5 and 1 Hz
Experimental: Effects of AZD0328 on cardiac action potentials were assessed in 4 dog Purkinje fibre preparations. (Table 3). The following action potential parameters were measured at the stimulation frequencies 0.5 and 1 Hz: action potential duration at 50% (APD50), 70% (APD70) and 90% (APD90) of repolarisation; the maximum velocity of the action potential upstroke (Vmax); the action potential amplitude (APA) and the resting membrane potential (RMP). At both stimulation frequencies, AZD0328 caused a concentration-dependent prolongation of APD50, APD70 and APD90, with significant effects at 5.6 μM and above. There was also an indication of proarrhythmic potential of the compound.

guinea pigs = experiment: Cardiac repolarisation in the anesthetised guinea pig; type: in vivo
Experimental: Effects of AZD0328 on ventricular repolarisation and intracardiac conduction were investigated in 6 anesthetised and ventilated guinea pigs (Table 3). For the electrophysiological characterisation, monophasic action potentia MAP duration at 90% repolarisation (MAPD90), ventricular conduction velocity (MAP rise time), and atrioventricular (AV) conduction time were recorded during cardiac pacing. AZD0328 had dose-dependent effects on the electrophysiological activities in the guinea pig heart. At the highest dose, resulting in a total plasma concentration of 8.5 μM, MAPD90 and AV conduction time were prolonged by 20% and 13%, respectively. It is concluded that AZD0328 delayed ventricular repolarisation in the anesthetised guinea pig by 10% at a total plasma concentration of 2.4 μM.

[3] = Respiratory effects, whole body plethysmography; type: in vivo; settings: plasma; rat, oral; read-out: NOAEL on ventilatory function, total Cmax
Experimental: Effects of single oral doses of AZD0328 on mean, systolic and diastolic arterial blood pressures, heart rate, body temperature, locomotor activity and respiratory parameters were evaluated in rats by combining whole body plethysmography with telemetry (Table 3). […] The degree of hypertension, however, was similar at the 3 highest doses, which partly can be explained by the high individual variation in plasma exposure at each dose level. The effect on heart rate was, on the other hand, dose-related.
Effects of AZD0328 on respiratory function were evaluated in the combined cardiovascular/respiratory study in rats (Table 3). Respiratory rate, tidal volume, inspiratory and expiratory times, and peak inspiratory and expiratory flows were measured […].

[4] = highest dose, total plasma concentration 8.5 μM

T1 sequence (Q12809 whole entry): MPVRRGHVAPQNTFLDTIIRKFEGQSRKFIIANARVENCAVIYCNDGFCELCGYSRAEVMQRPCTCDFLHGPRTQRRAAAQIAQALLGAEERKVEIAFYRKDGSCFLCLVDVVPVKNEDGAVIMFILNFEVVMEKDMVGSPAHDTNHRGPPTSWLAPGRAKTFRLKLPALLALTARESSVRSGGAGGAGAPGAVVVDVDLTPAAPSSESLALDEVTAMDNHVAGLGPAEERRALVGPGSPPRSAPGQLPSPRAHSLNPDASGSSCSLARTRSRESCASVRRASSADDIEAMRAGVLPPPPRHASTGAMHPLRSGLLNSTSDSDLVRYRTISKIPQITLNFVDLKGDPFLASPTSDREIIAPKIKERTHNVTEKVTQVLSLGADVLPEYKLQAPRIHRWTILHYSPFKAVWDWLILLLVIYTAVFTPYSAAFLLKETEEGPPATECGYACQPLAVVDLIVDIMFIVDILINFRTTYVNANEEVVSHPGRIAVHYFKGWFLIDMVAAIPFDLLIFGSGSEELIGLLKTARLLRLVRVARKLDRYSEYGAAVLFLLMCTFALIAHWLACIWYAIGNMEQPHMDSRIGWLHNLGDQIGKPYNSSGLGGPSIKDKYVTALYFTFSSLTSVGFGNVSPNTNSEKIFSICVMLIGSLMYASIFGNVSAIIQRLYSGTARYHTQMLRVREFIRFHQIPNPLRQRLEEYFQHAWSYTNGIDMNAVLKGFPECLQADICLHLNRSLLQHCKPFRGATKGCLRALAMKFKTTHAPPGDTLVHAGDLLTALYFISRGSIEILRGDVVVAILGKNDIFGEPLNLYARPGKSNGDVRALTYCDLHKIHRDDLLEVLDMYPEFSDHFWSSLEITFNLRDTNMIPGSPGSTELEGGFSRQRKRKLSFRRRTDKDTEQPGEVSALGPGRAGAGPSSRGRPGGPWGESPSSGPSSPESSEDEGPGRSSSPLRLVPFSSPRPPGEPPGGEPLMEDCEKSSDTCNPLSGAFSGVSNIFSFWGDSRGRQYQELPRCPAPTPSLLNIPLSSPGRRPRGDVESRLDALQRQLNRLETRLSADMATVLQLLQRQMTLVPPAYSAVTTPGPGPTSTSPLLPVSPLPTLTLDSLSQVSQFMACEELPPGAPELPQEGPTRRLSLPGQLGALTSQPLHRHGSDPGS

c1cnc2c(c1)C[C@@]1(CN3CCC1CC3)O2 [AZD0328, (R)-Spiro[1-azabicyclo[2.2.2]octane-3,2′(3′H)-furo[2,3-b]pyridine]]
duration of improved SDR performance after a single dose (rhesus monkeys; four of nine monkeys, middle doses (0.0016 and 0.00048 mg/kg im)): more than one month
higher doses with no effect or transiently impaired SDR performance (rhesus monkeys; rhesus monkeys): ≥ 0.016 mg/kg
lower doses with no effect or transiently impaired SDR performance (rhesus monkeys; rhesus monkeys): ≤ 0.00016 mg/kg
percent correct responses (SDR) (rhesus monkeys; rhesus monkeys, 0.016 mg/kg): non-significant increase
mutagenicity (Mouse lymphoma): not mutagenic
time of administration prior to object sampling at which object recognition index was still significantly increased (mice): ≤ 48 h
NOAEL [1]: 64.9 mg/kg
effect on hippocampal LTP (FFX Sprague Dawley rats): ineffective
pIC50 [2]: 4.49
mutagenicity (Ames test): not mutagenic
concentration with significant prolongation of APD50, APD70 and APD90 (dog Purkinje fibre): ≥ 5.6 µM
total plasma concentration (guinea pigs; highest dose, iv cumulative bolus): 8.5 µM
prolongation of AV conduction time (guinea pigs; [4]): 13%
prolongation of MAPD90 (guinea pigs; [4]): 20%
NOAEL, guinea pig MAP assay (guinea pigs; in vivo): 1 µM
Cmax [3]: 31.2 µM
